Data on three compounds can be found in US12679860B2, “C-terminal HSP90 inhibitors” (UNIVERSITY OF KANSAS, priority 2012, dated 2026).

One assay deals with Hsp70. Description: Immunoblot analysis of induction of Hsp70 in DRG sensory neurons. Format: cell-based, Sprague Dawley rat. The note with it: 24 hours incubation, then 4 hours of glucotoxic stress; Hsp70 normalized to β-actin. The procedure: DRG sensory neurons were incubated in the presence of DMSO (Cntrl) or 10-1000 nM of the indicated novologue overnight and then subjected to 4 hrs of hyperglycemia. The neurons were harvested and Hsp70 and β-actin levels were determined by immunoblot analysis. Band intensity was quantified using Image J, Hsp70 expression was normalized to the level of β-actin.
Since it was previously shown that the cytoprotective activity manifested by KU-32 requires Hsp70, the ability of 11b and 11n to induce Hsp70 was determined relative to KU-32. Increasing concentrations of KU-32, 11n, and 11b were incubated with DRG sensory neurons for 24 hours before the cells were subjected to 4 hours of glucotoxic stress. Hsp70 levels were examined by performing immunoblot analysis with the cellular lysates (FIG. 5). 11n and 11b induced Hsp70 levels at similar concentrations (10 nM) as those needed for neuroprotection.
DRG from embryonic day 15-18 Sprague Dawley rat pups were harvested into Leibovitz's L15 medium (L15) and dissociated with 0.25% trypsin for 30 min at 37° C. […]
(In general: A western blot detects proteins with antibodies after separation by electrophoresis.)

For assay [1], the system named is embryonic dorsal root ganglion (DRG) sensory neuron cultures. The assay can be described thus: Glucotoxicity assay: cell viability (calcein AM) of DRG sensory neurons under glucose-induced toxicity. Format: cell-based, Sprague Dawley rat. The note with it: for EC50: 0.1-1000 nM novologue overnight, then 4 hrs of hyperglycemia, mean±SEM (n=3-8), read-out: EC50 for protection against glucose-induced toxicity; for viability at 1 µM: Table 1, 1 μM of each novologue + 20 mM excess glucose, glucose + DMSO was 54% ± 2. The procedure: DRG sensory neurons were incubated in the absence or presence of 0.1-1000 nM of the indicated novologue overnight and then subjected to 4 hrs of hyperglycemia.
The ganglia were sedimented at 1,000×g for 5 min, resuspended in growth media [phenol red free Neurobasal medium (Gibco, Grand Island, NY) containing 25 mM glucose, 1X B-27 additive, 50 ng/ml NGF (Harlan Bioscience, Indianapolis, IN), 4 mM glutamine, 100 U/mL penicillin and 100 μg/mL streptomycin] and triturated with a fire-polished glass pipette. The cells were cultured on collagen-coated (0.1 mg/mL collagen followed by overnight air drying in a laminar flow hood) black-walled 96-well plates (Corning Incorporated Corning, NY) at a seeding density of 2-3×10^4 cells per well. DRG neurons were re-fed the next day with fresh growth media containing 40 μM fluorodeoxyuridine and 10 μM cytosine β-D-arabinoside (both from Sigma Aldrich, St. Louis, MO) for 2 days to remove proliferating cells. Experiments were performed on DRG neurons on the third day in culture after placing the cells in fresh growth medium. […]
DRG neurons were incubated overnight with the test compounds in the presence of Neurobasal medium, 50 ng/ml NGF and antibiotics only. In order to monitor the efficiency of the compounds in protecting DRG neurons against glucotoxicity, Calcein AM (Invitrogen, Carlsbad, CA) was utilized to measure cell viability. Hydrolysis of calcein AM to a fluorescent product can only occur in live cells. Excess glucose was added to the cultures for 4 hrs and cell viability was measured by incubating the cells with 2 μM calcein AM for 30 min in the dark at 37° C. Fluorescence was then measured using a plate reader with excitation and emission wavelengths set to 485 nm and 520 nm, respectively. The arbitrary fluorescence readings were normalized to the total amount of protein from each respective well of the neuronal cultures. The protein concentrations in each well were determined using the DC protein assay (Bio-Rad). Significant differences in the efficacy of the novologues for increasing cell viability were determined using a Kruskal-Wallis non-parametric ANOVA and Dunn's post-test.

Another assay has as its system diabetic mice. The note with it: weekly treatment, cited from earlier work.
Assay [2] concerns myelinated cultures of sensory neurons prepared from Hsp70.1 and 70.3 double knockout mice. The note with it: sensory neurons from Hsp70.1 and 70.3 double knockout mice; cited from earlier work.

Where two headings read alike, the source gives them in different places.

For orientation: EC50 means the midpoint of the concentration-response curve. A word on the viability: it is a read-out of living cells in per cent, often relative to untreated cells. As to `CO[C@@H]1[C@@H](O)[C@@H](O)C(Oc2ccc(CCNC(C)=O)c(-c3cccc(F)c3)c2)OC1(C)C` (stereo partly drawn) [11b, N-(2-(5-(((3R,4S,5R)-3,4-dihydroxy-5-methoxy-6,6-dimethyltetrahydro-2H-pyran-2-yl)oxy)-3′-fluoro-[1,1′-biphenyl]-2-yl)ethyl)acetamide], in the assay with Hsp70, the “concentration at which Hsp70 levels were induced” value is recorded as 10 nM. Moreover, the “protection against glucose-induced toxicity (in words)” value in assay [1] (1 μM novologue + 20 mM excess glucose) is reported as “showed significant protection against glucotoxicity”. In assay [1] (Rattus norvegicus, Neuron), the EC50 is 13 ± 3.6 nM and the viability at 1 µM is 95%.
Take `CO[C@@H]1[C@@H](O)[C@@H](O)C(Oc2ccc(CCNC(C)=O)c(-c3ccc4c(c3)OCO4)c2)OC1(C)C` (stereo partly drawn) [11n, N-(2-(benzo[d][1,3]dioxol-5-yl)-4-(((3R,4S,5R)-3,4-dihydroxy-5-methoxy-6,6-dimethyltetrahydro-2H-pyran-2-yl)oxy)phenethyl)acetamide]: the “concentration at which Hsp70 levels were induced” value in the assay on Hsp70 was determined as 10 nM. Also, in assay [1] (Rattus norvegicus, Neuron), the EC50 is 18.4 ± 3.2 nM and the viability at 1 µM was 83%.
In the case of `CO[C@@H]1[C@@H](O)[C@@H](O)[C@H](Oc2ccc3cc(NC(C)=O)c(=O)oc3c2C)OC1(C)C` [KU-32], the “reversal of clinical indices of DPN” value in the assay on diabetic mice (diabetic Hsp70 knockout mice) is “unable to reverse multiple clinical indices of DPN”. Also, in the assay with diabetic mice (diabetic wild type mice), the “sensory and motor nerve function” value is “restored normal sensory and motor nerve function”. Also, the “prevention of neuregulin-induced demyelination” value in assay [2] is on record as “ineffective”. For the same compound, the EC50 in assay [1] is 240 ± 42.5 nM.
